Experimental data published in patent US11013696B2, “Lipids and lipid compositions for the delivery of active agents” (Novartis AG, priority 2013, dated 2021).

Columns and labels:
[1] = Percent encapsulation of mRNA in lipid nanoparticles (Quant-iT Ribogreen); type: physicochemical; conditions: Table 2; leptin mRNA in LNP with the cationic lipid
Protocol: All equipment and disposable supplies are certified free of RNase activity by the manufacturer or rendered RNase free by use of the RNaseZap reagent (LifeTechnologies). mRNA is encapsulated at a cationic lipid amine to mRNA phosphate (N:P) molar ratio of 4:1. Lipids (cationic lipid, DSPC, cholesterol and lipidated PEG or stealth lipid) are dissolved in ethanol. The molar ratios are 40:10:38:2, respectively. The mixture is sonicated briefly, then gently agitated for 5 minutes and then maintained at 37° C. until use. mRNA is exchanged into citrate buffer pH 5.8-6.0 by use of Amicon Ultra-15 centrifugal concentrators, and the final concentration is adjusted to 0.5 mg/ml and held at 37° C. until use. An equal volume of lipids in ethanol, mRNA in citrate buffer, and citrate buffer alone are drawn into disposable syringes. Tubing leading from syringes containing lipids and mRNA are attached to the T junction, and tubing leading from the syringe containing citrate buffer alone is paired with the tubing exiting the T-junction over a collection vessel containing a stir bar on an active stir plate. Syringes are placed in a syringe pump set to expel contents at a flow rate of 1 ml per minute.
The pump is activated, and the collected mRNA in lipid nanoparticles is transferred to SnakeSkin dialysis tubing (10,000 MWCO, Thermo Scientific). Material is dialyzed against RNAse- and pyrogen-free 1× phosphate buffered saline overnight at 4° C.
Percent encapsulation of mRNA in lipid nanoparticles is determined using the Quant-iT Ribogreen RNA Assay kit (Life Technologies). The LNP-mRNA suspension is assayed in buffer (mRNA outside the particle), and buffer plus Triton X-100 detergent (total mRNA). The difference calculated is the mRNA inside the particle. Prepare a 1000 ng/mL stock from the RNA provided in the kit and use this to generate a standard curve (0 ng/ml, 15.63-1000 ng/ml) in TE and TE+0.75% Triton X-100. Prepare LNP-mRNA samples in TE buffer and TE buffer +0.75% Triton X-100 with appropriate dilution so that reading is in the range of standard curve (400-2,000 fold). In a 384-well plate (Costar non-treated #3573) add 0.04 ml of standard (in duplicate) or sample (in triplicate) per well. Dilute Ribogreen reagent 240-fold in TE buffer and add 0.06 ml per well. Mix contents of wells and measure fluorescence (excitation=480 nm, emission=520 nm). Subtract background values (no RNA) from standard and test sample values and determine the concentrations of RNA in the samples using the standard curves. Determine the percent encapsulation of the sample by dividing the difference in concentrations between sample+triton and sample in buffer alone by the sample+triton concentration.

[2] = siRNA encapsulation in lipid nanoparticles (SYBR Gold); type: physicochemical; conditions: Table 2; FVII siRNA in LNP with the cationic lipid
Protocol: The lipid nanoparticles (LNPs) were formed by mixing equal volumes of lipids dissolved in alcohol with siRNA dissolved in a citrate buffer by an impinging jet process. The lipid solution contains a cationic lipid compound of the invention, a helper lipid (cholesterol), an optional neutral lipid (DSPC) and a PEG (PEG) lipid at a concentration of 8-16 mg/mL with a target of 12 mg/mL in an alcohol. The siRNA to total lipid ratio is approximately 0.05 (wt/wt). Where a LNP formulation contains four lipid components, the molar ratios of the lipids ranges from 20 to 70 mole percent for the cationic lipid with a target of 40-60, the mole percent of helper lipid ranges from 20 to 70 with a target of 30 to 50, the mole percent of neutral lipid ranges from 0-30, the mole percent of PEG lipid has a range from 1 to 6 with a target of 2 to 5. The concentration of siRNA solution ranges from 0.7 to 1.0 mg/mL with a target of 0.8 to 0.9 mg/mL in a sodium citrate: sodium chloride buffer pH 4-6, with a target of 4.5-5.5. The LNPs are formed by mixing equal volumes of lipid solution in ethanol with siRNA dissolved in a citrate buffer by an impinging jet process through a mixing device with ID ranging from 0.25 to 2.0 mm at a flow rate from 10 to 640 mL/min. The mixed LNP solution is held at room temperature for 0-24 hrs prior to a dilution step. The solution is then concentrated and diafiltered with suitable buffer by ultrafiltration or dialysis process using membranes with a MW cutoff from 30 to 500 KD. The final product is sterile filtered and stored at 4° C.
The lipid nanoparticles (LNPs) were formed by mixing equal volumes of lipids dissolved in alcohol with siRNA dissolved in a citrate buffer by an impinging jet process. The lipid solution contains a cationic lipid compound of the invention, a helper lipid (cholesterol), an optional neutral lipid (DSPC) and a stealth lipid (5010, S024, S027, or S031) at a concentration of 8-16 mg/mL with a target of 12 mg/mL in an alcohol. The siRNA to total lipid ratio is approximately 0.05 (wt/wt). Where a LNP formulation contains four lipid components, the molar ratios of the lipids ranges from 20 to 70 mole percent for the cationic lipid with a target of 40-60, the mole percent of helper lipid ranges from 20 to 70 with a target of 30 to 50, the mole percent of neutral lipid ranges from 0-30, the mole percent of PEG lipid has a range from 1 to 6 with a target of 2 to 5. The concentration of siRNA solution ranges from 0.7 to 1.0 mg/mL with a target of 0.8 to 0.9 mg/mL in a sodium citrate: sodium chloride buffer pH 4-6, with a target of 4.5-5.5. The LNPs are formed by mixing equal volumes of lipid solution in ethanol with siRNA dissolved in a citrate buffer by an impinging jet process through a mixing device with ID ranging from 0.25 to 2.0 mm at a flow rate from 10 to 640 mL/min. The mixed LNP solution is held at room temperature for 0-24 hrs prior to a dilution step. The solution is then concentrated and diafiltered with suitable buffer by ultrafiltration process using membranes with a MW cutoff from 30 to 500 KD. The final product is sterile filtered and stored at 4° C.
SYBR Gold flourescence reagent is used for the determination of siRNA encapsulation in the DLP's. DLP's with and without triton x-100 are used to determine the free siRNA and total siRNA amounts. DLP's samples with and without triton X-100 were excited at 485 nm and flourescence emission is measured at 530 nm. Encapsulation efficiency is calculated based on the following formula: Encapsulation efficiency:[([…])/(total siRNA concentration)]×100% Encapsulation Data

| % encapsulation mRNA Leptin [1] | % encapsulation siRNA FVII [2] | SMILES |
| --- | --- | --- |
| 72.5% | 83.2% | CCCCC/C=C\C/C=C\CCCCCCCC(=O)OCCN(CCOC(=O)CCCCCCC/C=C\C/C=C\CCCCC)C(=O)CCC(CCCCCCCCCCCC)OC(=O)OCCCN(CC)CC (stereo not drawn) [Example 103, (9Z,12Z)-10-dodecyl-3-ethyl-14-(2-((9Z,12Z)-octadeca-9,12-dienoyloxy)ethyl)-8,13-dioxo-7,9-dioxa-3,14-diazahexadecan-16-yl octadeca-9,12-dienoate] |
| 24.0% | 91.7% | CCCCCCCCCCCCC(CCOC(=O)CCCCCC(COC(=O)CCCCCCC)COC(=O)CCCCCCC)OC(=O)OCCCN(CC)CC (stereo not drawn) [Example 6, 2-(10-dodecyl-3-ethyl-8,14-dioxo-7,9,13-trioxa-3-azanonadecan-19-yl)propane-1,3-diyl dioctanoate] |
| 98.9% | 91.0% | CCCCCCCCCCCCC(CCOC(=O)CCC(OCC(CCC)CCC)OCC(CCC)CCC)OC(=O)OCCCN(C)C (stereo not drawn) [Example 15, 3-(((3-(dimethylamino)propoxy)carbonyl)oxy)pentadecyl 4,4-bis((2-propylpentyl)oxy)butanoate] |
| 39.2% | 77.4% | CCCCCCCCCCCCC(CCC(=O)OC(COC(=O)CCCCCCCCCCC)COC(=O)CCCCCCCCCCC)OC(=O)OCCCN(CC)CC (stereo not drawn) [Example 88, 2-((4-(((3-(diethylamino)propoxy)carbonyl)oxy)hexadecanoyl)oxy)propane-1,3-diyl didodecanoate] |
| 99.4% | 88.0% | CCCCCCCCCCCCC(CCOC(=O)CCC(OCC(CCC)CCC)OCC(CCC)CCC)OC(=O)OCCCN(C)CC (stereo not drawn) [Example 14, 3-(((3-(ethyl(methyl)amino)propoxy)carbonyl)oxy)pentadecyl 4,4-bis((2-propylpentyl)oxy)butanoate] |
| 88.4% | 89.9% | CCCCCCCCCCCCC(CCOC(=O)CCCCCCC(COC(=O)CCCCCCC)COC(=O)CCCCCCC)OC(=O)OCCCN(C)C (stereo not drawn) [Example 10, 2-(9-dodecyl-2-methyl-7,13-dioxo-6,8,12-trioxa-2-azanonadecan-19-yl)propane-1,3-diyl dioctanoate] |
| 98.2% | 89.7% | CCCCCCCCCCCCC(CCOC(=O)CCC(OCCCCCCCC)OCCCCCCCC)OC(=O)OCCCN(CC)CC (stereo not drawn) [Example 11, 3-(((3-(diethylamino)propoxy)carbonyl)oxy)pentadecyl 4,4-bis(octyloxy)butanoate] |
| 88.2% | 86.4% | CCCCC/C=C\C/C=C\CCCCCCCC(=O)OCCC(CCCCCCCCCCCC)OC(=O)OCCCN(C)CC (stereo not drawn) [Example 45, (9Z,12Z)-3-(((3-(ethyl(methyl)amino)propoxy)carbonyl)oxy)pentadecyl octadeca-9,12-dienoate] |
| 84.6% | 88.3% | CCCCCCCCCCCCC(CCOC(=O)CCCCC(OCCCCCC)OCCCCCC)OC(=O)OCCCN(CC)CC (stereo not drawn) [Example 17, 3-(((3-(diethylamino)propoxy)carbonyl)oxy)pentadecyl 6,6-bis(hexyloxy)hexanoate] |
| 96.6% | 91.0% | CCCCCCCCCCCCC(CCOC(=O)CCCCCCC(COC(=O)CCCCCCC)COC(=O)CCCCCCC)OC(=O)OCCCN(CC)CC (stereo not drawn) [Example 9, 2-(10-dodecyl-3-ethyl-8,14-dioxo-7,9,13-trioxa-3-azaicosan-20-yl)propane-1,3-diyl dioctanoate] |
| 98.2% | 91.2% | CCCCCCCCCCCCC(CCOC(=O)CCCCCCC(OCC(CCC)CCC)OCC(CCC)CCC)OC(=O)OCCCN(CC)CC (stereo not drawn) [Example 21, 3-(((3-(diethylamino)propoxy)carbonyl)oxy)pentadecyl 8,8-bis((2-propylpentyl)oxy)octanoate] |
| 83.1% | 77.5% | CCCCCCCCCCCCCC(=O)OCC(COC(=O)CCCCCCCCCCCCC)OC(=O)CCC(CCCCCCCCCCCC)OC(=O)OCCCN(CC)CC (stereo not drawn) [Example 84, 2-((4-(((3-(diethylamino)propoxy)carbonyl)oxy)hexadecanoyl)oxy)propane-1,3-diyl ditetradecanoate] |
| 81.1% | 90.3% | CCCCCCCCCCCCC(CCOC(=O)CCC(OCC(CCC)CCC)OCC(CCC)CCC)OC(=O)OCCCN(CC)CC (stereo not drawn) [Example 13, 3-(((3-(diethylamino)propoxy)carbonyl)oxy)pentadecyl 4,4-bis((2-propylpentyl)oxy)butanoate] |
| 98.0% | 92.0% | CCCCCCCCCCCCC(CCOC(=O)CCCCCCC(OCC(CCC)CCC)OCC(CCC)CCC)OC(=O)OCCCN(C)C (stereo not drawn) [Example 23, 3-(((3-(dimethylamino)propoxy)carbonyl)oxy)pentadecyl 8,8-bis((2-propylpentyl)oxy)octanoate] |
| 99.2% | 91.7% | CCCCCCCCCCCCC(CCOC(=O)CCCCCCC(OCC(CCC)CCC)OCC(CCC)CCC)OC(=O)OCCCN(C)CC (stereo not drawn) [Example 22, 3-(((3-(ethyl(methyl)amino)propoxy)carbonyl)oxy)pentadecyl 8,8-bis((2-propylpentyl)oxy)octanoate] |
